Patent US20250144186A1, “NOVEL THERAPEUTIC USES OF GARDNERELLA ENDOLYSINS” (priority 2022, published 2025)
Values after ≈ are worked out from the molar mass of the structure shown. Like-named read-outs stand apart in the source and are kept apart here.

How the values were obtained:
[1] = system: All Gardnerella; assay: MIC assessment in suspension, panel of 22 strains; type: cell-based, Gardnerella spp.
Method: (§1) The minimum inhibitory concentration (MIC), which is a standard measure of the activity of antimicrobials, was determined according to the Clinical and Laboratory Standards Institute protocol (2018) Methods for Antimicrobial Susceptibility Testing of Anaerobic Bacteria (Carpenter et al., 2018). […] Controls for growth in the absence of antimicrobials were also included. OD600 was recorded by a microplate reader (Tecan, Grodig, Austria) after incubation at 37° C. for 48 h or, for some fast-growing strains, after incubation for 24 h. Absence of growth was defined as OD600≤0.14. […] MIC readout and MBC99.5 spotting were performed after 72 h incubation for H2B10B11.
(§2) However, topical intravaginal antibiotic administration is recommended for BV therapy, which allows to reach concentrations of active ingredients in the mg/mL range. […] Abbreviations: n.d., not determined; SJHB, St. Jan Hospital Bruges.
(§3) MIC90 is defined as the MIC value for 90% of the tested strains. For PM-477 (H2B10), the resistance breakpoint is not defined, therefore a “% resistant” is not defined (n.d.).

[2] = system: Gardnerella swidsinskii; assay: microbe, parasite or virus in culture; type: cell-based; conditions: Gardnerella swidsinskii
Method: as §1, §2, §3

[3] = system: Gardnerella vaginalis; assay: microbe, parasite or virus in culture; type: cell-based; conditions: Gardnerella vaginalis
Method: as §1, §2, §3

[4] = system: Gardnerella leopoldii; assay: MIC / MBC99.5 assessment in suspension; type: cell-based; conditions: Gardnerella leopoldii; for MIC: read-out: MIC; for MBC: read-out: MBC99.5
Method: as §1, §2, §3

[5] = system: Gardnerella piotii; assay: MIC / MBC99.5 assessment in suspension; type: cell-based; conditions: Gardnerella piotii; for MIC: read-out: MIC
Method: as §1, §2, §3

[6] = system: Gardnerella strains from vaginal swabs of BV patients; assay: MIC and MBC99.5 on 18 in-house BV patient isolates; type: cell-based, Gardnerella spp.
Method: as §1

[7] = system: Gardnerella type strains and patient isolates; assay: MIC and MBC99.5 on about 100 type strains and patient isolates of various origins; type: cell-based, Gardnerella spp.
Method: as §1
MIC and MBC99.5 of H2B10B11 on a panel of about 100 Gardnerella type strains and patient isolates from various geographic origins were determined following the CLSI protocol. […] For a subset of fast-growing strains thereof and for some additional strains, MIC determination was performed after 48 h of incubation to bridge the results to earlier assessed MIC values (FIG. 6). In total, MIC was determined for 104 different strains (the MIC of 15 strains was determined both, after 48 h and 72 h). […] The number of strains in each group is stated on the right site of the graph.

[8] = G. swidsinskii (BV7) UGent BV7.1, suspension
[9] = G. swidsinskii (Gs23) GS 10234, suspension
[10] = G. swidsinskii (Gs24) GS 9838-1(T), suspension
[11] = read-out: MBC99.5, G. swidsinskii (BV7) UGent BV7.1
[12] = read-out: MBC99.5, G. swidsinskii (Gs23) GS 10234
[13] = read-out: MBC99.5, G. swidsinskii (Gs24) GS 9838-1(T)
[14] = ATCC14018, 24 h, read-out: MBC99.5, G. vaginalis (Gv9) ATCC 14018(T), reduces CFU by 99.5% within 24 h
[15] = ATCC14018, G. vaginalis (Gv9) ATCC 14018(T), suspension
[16] = G. vaginalis (BV50) UGent BV50.1, suspension
[17] = G. vaginalis (FB049) UGent FB049-01, suspension
[18] = read-out: MBC99.5, G. vaginalis (BV111) UGent BV111.5
[19] = read-out: MBC99.5, G. vaginalis (FB049) UGent FB049-01
[20] = G. leopoldii (BV13) UGent BV13.2, suspension
[21] = G. leopoldii (BV13) UGent BV13.2
[22] = G. leopoldii (Gl11) UGent 09.48, suspension
[23] = G. leopoldii (Gl11) UGent 09.48
[24] = G. piotii (FB041) UGent FB041, suspension
[25] = G. piotii (Gp17) UGent 18.01(T)
[26] = G. piotii (Gp17) UGent 18.01(T), suspension
[27] = G. piotii (Gp22) UGent 21.28, suspension
[28] = G. piotii (P80275) UGent P80275
[29] = G. piotii (P80275) UGent P80275, suspension
[30] = MIC after 72 h, unpaired t-test of log2-transformed data

With `CCC[C@@H]1C[C@@H](C(=O)N[C@@H]([C@H]2O[C@H](SC)[C@H](O)[C@@H](O)[C@H]2O)[C@H](C)Cl)N(C)C1` [CLI, clindamycin] the N resistant ([1]; N=22, resistance ≥32 μg/mL MDZ, ≥8 μg/mL CLI) was 0, the “MIC Range” value ([1]; N=22 strains) was <0.06-2^ μg/mL and the MIC90 ([1]; N=22 strains, read-out: MIC90) was 0.5 µg/mL (≈ 1.18 µM). It also gave an MIC [2] of 0.125 µg/mL (≈ 0.294 µM), an MIC90 [2] of 0.5 µg/mL (≈ 1.18 µM) and an MIC [2, 8] of 0.5 µg/mL (≈ 1.18 µM). For the same molecule, the MIC [2, 9] was 0.25 µg/mL (≈ 0.588 µM), the MIC [2, 10] was < 0.06 µg/mL and the “MIC Range” value ([2]; N=4 strains) was <0.06 to 0.5 µg/mL. It also gave an MBC [2, 11] of 1 µg/mL (≈ 2.35 µM), an MBC ([2]; read-out: MBC99.5, G. swidsinskii (BV139) UGent BV139.3) of 0.25 µg/mL (≈ 0.588 µM) and an MBC [2, 12] of 0.25 µg/mL (≈ 0.588 µM). The MBC [2, 13] was 0.5 µg/mL (≈ 1.18 µM), the MIC90 [3] was 0.5 µg/mL (≈ 1.18 µM) and the MBC [3, 14] was 0.5 µg/mL (≈ 1.18 µM). It also gave an MIC [3, 15] of 0.25 µg/mL (≈ 0.588 µM), an MIC [3, 16] of 0.25 µg/mL (≈ 0.588 µM) and an MIC [3, 17] of 0.5 µg/mL (≈ 1.18 µM). The “MIC Range” value ([3]; N=8 strains) was <0.06 to 0.5 µg/mL, the MBC ([3]; read-out: MBC99.5, G. vaginalis (BV50) UGent BV50.1) was 0.5 µg/mL (≈ 1.18 µM) and the MBC [3, 18] was 2 µg/mL (≈ 4.71 µM). For the same molecule, the MBC [3, 19] was 1 µg/mL (≈ 2.35 µM), the MIC [4, 20] was 0.5 µg/mL (≈ 1.18 µM) and the MBC [4, 21] was 1 µg/mL (≈ 2.35 µM). For the same molecule, the MIC ([4]; G. leopoldii (BV217) UGent BV217.1, suspension) was 0.5 µg/mL (≈ 1.18 µM), the MBC ([4]; G. leopoldii (BV217) UGent BV217.1) was 1 µg/mL (≈ 2.35 µM) and the MIC [4, 22] was 0.5 µg/mL (≈ 1.18 µM). The MBC [4, 23] was 1 µg/mL (≈ 2.35 µM), the N resistant ([4]; N=3, resistance ≥32 μg/mL MDZ, ≥8 μg/mL CLI) was 0 and the “MIC Range” value ([4]; N=3 strains) was 0.5 µg/mL (≈ 1.18 µM). For the same molecule, the MIC90 ([4]; N=3 strains, read-out: MIC90) was 0.5 µg/mL (≈ 1.18 µM), the MBC ([5]; G. piotii (BV049) UGent BV049.1) was 0.125 µg/mL (≈ 0.294 µM) and the MIC ([5]; G. piotii (BV140) UGent BV140.2, suspension) was 2 µg/mL (≈ 4.71 µM). For the same molecule, the MBC ([5]; G. piotii (BV154) UGent BV154.1) was 0.5 µg/mL (≈ 1.18 µM), the MIC ([5]; G. piotii (BV154) UGent BV154.1, suspension) was 0.5 µg/mL (≈ 1.18 µM) and the MBC ([5]; G. piotii (FB041) UGent FB041) was 2 µg/mL (≈ 4.71 µM). The MIC [5, 24] was 1 µg/mL (≈ 2.35 µM), the MBC [5, 25] was 1 µg/mL (≈ 2.35 µM) and the MIC [5, 26] was 0.5 µg/mL (≈ 1.18 µM). For the same molecule, the MBC ([5]; G. piotii (Gp22) UGent 21.28) was 0.5 µg/mL (≈ 1.18 µM), the MIC [5, 27] was 0.25 µg/mL (≈ 0.588 µM) and the MBC [5, 28] was 1 µg/mL (≈ 2.35 µM). The MIC [5, 29] was 0.5 µg/mL (≈ 1.18 µM), the N resistant ([5]; N=7, resistance ≥32 μg/mL MDZ, ≥8 μg/mL CLI) was 0 and the “MIC Range” value ([5]; N=7 strains) was 0.125-2^ μg/mL. It also gave an MIC90 ([5]; N=7 strains, read-out: MIC90) of 2 µg/mL (≈ 4.71 µM), an MIC ([5]; G. piotii (BV049) UGent BV049.1, suspension) of 0.125 µg/mL (≈ 0.294 µM) and an MBC ([5]; G. piotii (BV140) UGent BV140.2) of 64 µg/mL (≈ 151 µM).

With `CCS(=O)(=O)CCn1c([N+](=O)[O-])cnc1C` [TDZ, tinidazole] the MIC [2, 8] was 128 µg/mL (≈ 518 µM), the MIC [2, 9] was > 128 µg/mL and the MIC [2, 10] was > 128 µg/mL. The MBC [2, 11] was > 128 µg/mL, the MBC [2, 12] was > 128 µg/mL and the MBC [2, 13] was > 128 µg/mL. For the same molecule, the MBC [3, 14] was > 128 µg/mL, the MIC [3, 15] was 128 µg/mL (≈ 518 µM) and the MIC [3, 16] was 64 µg/mL (≈ 259 µM). It also gave an MIC [3, 17] of 8 µg/mL (≈ 32.4 µM), an MIC ([3]; G. vaginalis (FB061) UGent FB061-03, suspension, read-out: MIC) of 4 µg/mL (≈ 16.2 µM) and an MBC ([3]; G. vaginalis (FB061) UGent FB061-03, read-out: MBC99.5) of 32 µg/mL (≈ 129 µM). For the same molecule, the MIC ([3]; G. vaginalis (Gv1) UGent 09.07, suspension, read-out: MIC) was > 128 µg/mL, the MBC ([3]; G. vaginalis (Gv1) UGent 09.07, read-out: MBC99.5) was > 128 µg/mL and the MIC ([3]; G. vaginalis (Gv5) UGent 09.01, suspension, read-out: MIC) was 4 µg/mL (≈ 16.2 µM). For the same molecule, the MBC ([3]; G. vaginalis (Gv5) UGent 09.01, read-out: MBC99.5) was 8 µg/mL (≈ 32.4 µM), the MIC ([3]; G. vaginalis (Gv8) UGent 25.49, suspension, read-out: MIC) was 4 µg/mL (≈ 16.2 µM) and the MBC ([3]; G. vaginalis (Gv8) UGent 25.49, read-out: MBC99.5) was 32 µg/mL (≈ 129 µM). For the same molecule, the MBC [3, 18] was 128 µg/mL (≈ 518 µM), the MBC [3, 19] was 64 µg/mL (≈ 259 µM) and the MIC [4, 20] was > 128 µg/mL. For the same molecule, the MBC [4, 21] was 128 µg/mL (≈ 518 µM), the MIC [4, 22] was 128 µg/mL (≈ 518 µM) and the MBC [4, 23] was > 128 µg/mL. The MBC ([5]; G. piotii (FB041) UGent FB041) was 128 µg/mL (≈ 518 µM), the MIC [5, 24] was 64 µg/mL (≈ 259 µM) and the MBC [5, 25] was > 128 µg/mL. For the same molecule, the MIC [5, 26] was 64 µg/mL (≈ 259 µM), the MBC ([5]; G. piotii (Gp22) UGent 21.28) was > 128 µg/mL and the MIC [5, 27] was > 128 µg/mL. It also gave an MBC [5, 28] of 128 µg/mL (≈ 518 µM) and an MIC [5, 29] of 32 µg/mL (≈ 129 µM).

B1: H2B10B11: recombinant endolysin, SEQ ID NO: 37; differs from H2B10 in one amino acid exchange in one of the binding domains (protein)
chain: MSKRGIDVSEWQGDIDFNAVKASGVEFVIIRAGYGIGCKDKWFEQNYRKAKTCGLDVGAYWYSYANSGFEAAEEAQSCVNMLSGKSFEYPVYFDLEEKSQLNRGRAFCDSLITGFCNKLESCGYYAGFYTSLSTANNLVSAHVRNRYALWIAQWNTHCSYQGSYGLWQYSSSGSVPGVAGRVDMDYAYVDYPSIIKNVGLNGYKNGGSYTAPQISSIDEVAREVINGDWGNGNERKQRLTSAGYDYASVQNKVNELLGVKAYRKSVDELAREVIRGTWGNGSTRKQRLTQAGYDYDAVQKRVNELL
modifications: H2B10B11
For B1, the “median MBC99.5” value ([6]; 18 in-house BV patient isolates) was 8 µg/mL, the “median MIC” value ([6]; 18 in-house BV patient isolates, H2B10B11 read after 72 h) was 2 µg/mL and the MIC90 ([6]; panel of 18 BV patient isolates) was 4.4 µg/mL. The “Lytic effect on MDZ-resistant Gardnerella isolates (FIG. 5)” value ([6]; panel of n=18 BV patient isolates) was “maintained”, the “inhibiting concentration (MIC)” value ([6]; the 10 MDZ-resistant isolates of the panel of 18) was 4 to 8 µg/mL and the “Susceptibility of BV patient isolates of various origins (FIG. 6)” value [7] was “susceptible”. For the same molecule, the “MIC and MBC99.5 values, readout after 48 h compared to 72 h” value ([7]; 15 strains determined both after 48 h and 72 h) was “one concentration lower”, the “difference between the MICs of G. vaginalis and G. leopoldii/swidsinskii” value [7, 30] was “no significant difference” and the “difference in susceptibility between isolates from African and European BV patients” value [7, 30] was “no significant difference”.
